≈ marks a conversion by molar mass, not a printed value.

The term melting point denotes the temperature, or range, at which the solid turns liquid.

The subject of one data set is H. influenzae 30063. Briefly: MIC by standard agar dilution, H. influenzae 30063. The class given is cell-based. The settings on record: Mueller Hinton agar, incubated overnight at 35° C.; for MIC: Haemophilus influenzae, 30063, agar dilution, read-out: H. influenzae 30063 MIC. The gist of the method:
(§1)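 Agar dilution MIC: 2-fold serial compound dilutions in Mueller Hinton agar, spot-inoculated with ~10^4–10^5 cells from 0.5 McFarland suspensions diluted 1:20 in TSB. Incubated overnight at 35 °C; MIC (μg/mL) taken as lowest concentration preventing visible growth.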

A further data set relates to S. aureus UC9213. In words: MIC by standard agar dilution, S. aureus UC9213. The class given is cell-based. The following applies: incubated overnight at 35° C.; for MIC: Staphylococcus aureus, UC9213, Mueller Hinton agar. A digest of the protocol: as §1
A general note: Agar dilution tests growth on a series of plates holding different concentrations.

In a further data set the test system is S. pneumoniae UC9912. In words: MIC by standard agar dilution, S. pneumoniae UC9912. The class given is cell-based. The settings on record: incubated overnight at 35° C.; for MIC: Streptococcus pneumoniae, UC9912, Mueller Hinton agar. The gist of the method: as §1

Compound `CC(=O)NC[C@H]1CN(c2ccc([C@H]3[C@@H]4CSC[C@@H]43)c(F)c2)C(=O)O1` [Example 1, N-[((5S)-3-{3-fluoro-4-[exo-(1R,5S)-3-thiabicyclo[3.1.0]hex-6-yl]phenyl}-2-oxo-1,3-oxazolidin-5-yl)methyl]acetamide] came in with a melting point of 177 to 178 °C. In the data set on H. influenzae 30063, the MIC was ≤ 32 µg/mL. In the data set on S. aureus UC9213, the MIC was 4 µg/mL (≈ 11.4 µM). The same compound had an MIC against S. pneumoniae UC9912 of 1 µg/mL (≈ 2.85 µM).

Turning to `CC(=O)NC[C@H]1CN(c2ccc([C@H]3[C@@H]4CN(/C(N)=N/C#N)C[C@@H]43)c(F)c2)C(=O)O1` [Example 74, exo-(1R,5S)-N′-cyano-6-(4-{(5S)-5-[(acetylamino)methyl]-2-oxo-1,3-oxazolidin-3-yl}-2-fluorophenyl)-3-azabicyclo[3.1.0]hexane-3-carboximidamide], the MIC with H. influenzae 30063 worked out at 4 µg/mL (≈ 9.99 µM); in the data set on S. aureus UC9213, 1 µg/mL (≈ 2.5 µM); against S. pneumoniae UC9912, 1 µg/mL (≈ 2.5 µM).

Consider `CN/C(=C\[N+](=O)[O-])N1C[C@@H]2[C@H](C1)[C@H]2c1ccc(N2C[C@H](CNC(C)=O)OC2=O)cc1F` [Example 75, N-[((5S)-3-{3-fluoro-4-[exo-(1R,5S)-3-((E)-1-{methylamino}-2-nitrovinyl)-3-azabicyclo[3.1.0]hex-6-yl]phenyl}-2-oxo-1,3-oxazolidin-5-yl)methyl]acetamide], for which the MIC in the data set on H. influenzae 30063 amounted to 4 µg/mL (≈ 9.23 µM); in the data set with S. aureus UC9213, 2 µg/mL (≈ 4.61 µM); in the data set on S. pneumoniae UC9912, 2 µg/mL (≈ 4.61 µM).

In the case of `CC(=O)NC[C@H]1CN(c2ccc(N3CCOCC3)c(F)c2)C(=O)O1` [linezolid, reference compound], the MIC in the data set with H. influenzae 30063 came to 16 µg/mL (≈ 47.4 µM); with S. aureus UC9213, 4 µg/mL (≈ 11.9 µM); in the data set on S. pneumoniae UC9912, 1 µg/mL (≈ 2.96 µM).

As for “N-[((5S)-3-{3-fluoro-4-[exo-(1R,5S)-3-(1-methyl-1H-tetrazol-5-yl)-3-azabicyclo[3.1.0]hex-6-yl]phenyl}-2-oxo-1,3-oxazolidin-5-yl)methyl]acetamide [Example 45]”, in the data set with H. influenzae 30063 (agar dilution), the “H. influenzae 30063 MIC” value came out at 16 µg/mL. Further, in the data set on S. aureus UC9213 (Mueller Hinton agar), the “S. aureus UC9213 MIC” value was found to be 4 µg/mL. Further, the “S. pneumoniae UC9912 MIC” value in the data set with S. pneumoniae UC9912 (Mueller Hinton agar) was 4 µg/mL.

These data come from US7279494B2, “Antimicrobial [3.1.0] bicyclohexylphenyl-oxazolidinone derivatives and analogues” (Pfizer Inc., priority 2003, dated 2007).
